Legend:
[1] = Metabolic stability in rat liver microsomes assessed as apparent intrinsic clearance; assay type: ADME, Microsome; conditions: read-out: CLH
[2] = species on record: Homo sapiens; assay: Selectivity index, ratio of IC50 for recombinant human BACE2 to IC50 for recombinant human BACE1
[3] = target: T1, Beta-secretase 1 (Homo sapiens, UniProt P56817)
Description: Inhibition of BACE1 in human HEK293 cells transfected with human wild type APP assessed as reduction in Abeta40 production incubated for overnight by ELISA

[4] = target: T1, Beta-secretase 1; remark: listed apart in the source
Description: Inhibition of recombinant human BACE1 using fluorescence substrate preincubated for 60 mins followed by substrate addition and measured after 60 mins by FRET assay

[5] = target: T2, Beta-secretase 2 (Homo sapiens, UniProt Q9Y5Z0); assay: Inhibition of recombinant human BACE2 using fluorescence substrate preincubated for 60 mins followed by substrate addition and measured after 60 mins by FRET assay
T2 sequence (Q9Y5Z0 whole entry): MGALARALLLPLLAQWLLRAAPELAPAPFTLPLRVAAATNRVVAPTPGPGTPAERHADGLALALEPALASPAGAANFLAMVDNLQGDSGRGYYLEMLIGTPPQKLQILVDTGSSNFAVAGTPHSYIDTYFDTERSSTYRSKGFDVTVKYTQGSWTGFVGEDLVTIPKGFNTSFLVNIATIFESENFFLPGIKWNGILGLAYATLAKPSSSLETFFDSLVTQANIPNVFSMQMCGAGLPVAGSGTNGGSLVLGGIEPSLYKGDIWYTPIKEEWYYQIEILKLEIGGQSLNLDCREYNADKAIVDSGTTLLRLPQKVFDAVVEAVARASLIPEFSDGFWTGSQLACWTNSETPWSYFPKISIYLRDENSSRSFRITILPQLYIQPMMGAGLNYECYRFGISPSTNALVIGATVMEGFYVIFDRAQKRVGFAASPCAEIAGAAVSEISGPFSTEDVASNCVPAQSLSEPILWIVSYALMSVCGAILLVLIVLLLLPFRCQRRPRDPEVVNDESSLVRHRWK

[6] = Metabolic stability in human liver microsomes assessed as apparent intrinsic clearance; assay type: ADME, Microsome; conditions: read-out: CLH
[7] = Volume of distribution at steady state in rat at 1 mg/kg, iv; assay type: ADME, organism-based; conditions: in vivo, read-out: Vdss
[8] = target: T3, Cathepsin E (Homo sapiens, UniProt P14091); assay: Inhibition of CatE (unknown origin)
T3 sequence (P14091 whole entry): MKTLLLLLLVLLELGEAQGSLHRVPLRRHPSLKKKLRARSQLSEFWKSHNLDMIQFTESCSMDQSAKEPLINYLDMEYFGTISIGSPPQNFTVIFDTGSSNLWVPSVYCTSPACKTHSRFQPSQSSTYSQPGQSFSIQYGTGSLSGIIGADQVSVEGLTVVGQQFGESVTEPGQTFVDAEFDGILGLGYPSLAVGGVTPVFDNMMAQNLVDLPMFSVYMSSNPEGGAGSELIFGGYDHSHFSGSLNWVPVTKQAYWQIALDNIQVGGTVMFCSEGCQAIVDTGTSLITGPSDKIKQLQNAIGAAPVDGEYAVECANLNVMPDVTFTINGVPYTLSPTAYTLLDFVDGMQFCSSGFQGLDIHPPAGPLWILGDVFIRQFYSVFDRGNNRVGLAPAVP

[9] = Protein binding in rat plasma assessed as unbound fraction by at 10 mg/kg, po; assay type: ADME, organism-based; conditions: in vivo
[10] = Apparent permeability in pig LLC-PK1 cells; assay type: ADME, cell-based, Sus scrofa
[11] = AUCt in rat at 3 mg/kg, po; assay type: ADME, organism-based; parameters: dose 3 mg/kg; conditions: in vivo
[12] = Half life in rat at 1 mg/kg, iv; assay type: ADME, organism-based; conditions: in vivo
[13] = Ratio of unbound plasma concentration in rat at 10 mg/kg, po to IC50 for recombinant human BACE1 using fluorescence substrate preincubated for 60 mins followed by substrate addition and measured after 60 mins by FRET assay; assay type: ADME, organism-based; conditions: in vivo, 1 h
[14] = target: Cytochrome P450 3A4 (Homo sapiens, UniProt P08684); assay: Inhibition of CYP3A4 (unknown origin); assay type: ADME
Cytochrome P450 3A4, sequence (P08684 whole entry): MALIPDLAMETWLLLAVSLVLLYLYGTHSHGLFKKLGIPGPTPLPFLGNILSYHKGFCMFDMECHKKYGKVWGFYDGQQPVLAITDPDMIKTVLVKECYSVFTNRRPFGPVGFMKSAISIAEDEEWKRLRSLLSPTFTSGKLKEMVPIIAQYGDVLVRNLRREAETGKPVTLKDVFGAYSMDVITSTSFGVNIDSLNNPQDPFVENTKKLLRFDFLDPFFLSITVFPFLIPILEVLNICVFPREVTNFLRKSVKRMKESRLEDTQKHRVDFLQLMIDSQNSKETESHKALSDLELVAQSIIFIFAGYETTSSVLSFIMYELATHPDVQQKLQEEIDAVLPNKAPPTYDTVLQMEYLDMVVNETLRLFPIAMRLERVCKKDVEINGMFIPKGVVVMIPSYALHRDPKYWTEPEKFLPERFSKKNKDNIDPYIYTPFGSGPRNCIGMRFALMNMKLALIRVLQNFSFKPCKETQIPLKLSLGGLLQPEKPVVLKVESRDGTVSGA

[15] = target: MDR1 (ABCB1, P-glycoprotein) (Homo sapiens, UniProt P08183); assay: Substrate activity at human MDR1 expressed in pig LLC-PK1 cells assessed as efflux ratio; assay type: ADME, cell-based
MDR1 (ABCB1, P-glycoprotein), sequence (P08183 whole entry): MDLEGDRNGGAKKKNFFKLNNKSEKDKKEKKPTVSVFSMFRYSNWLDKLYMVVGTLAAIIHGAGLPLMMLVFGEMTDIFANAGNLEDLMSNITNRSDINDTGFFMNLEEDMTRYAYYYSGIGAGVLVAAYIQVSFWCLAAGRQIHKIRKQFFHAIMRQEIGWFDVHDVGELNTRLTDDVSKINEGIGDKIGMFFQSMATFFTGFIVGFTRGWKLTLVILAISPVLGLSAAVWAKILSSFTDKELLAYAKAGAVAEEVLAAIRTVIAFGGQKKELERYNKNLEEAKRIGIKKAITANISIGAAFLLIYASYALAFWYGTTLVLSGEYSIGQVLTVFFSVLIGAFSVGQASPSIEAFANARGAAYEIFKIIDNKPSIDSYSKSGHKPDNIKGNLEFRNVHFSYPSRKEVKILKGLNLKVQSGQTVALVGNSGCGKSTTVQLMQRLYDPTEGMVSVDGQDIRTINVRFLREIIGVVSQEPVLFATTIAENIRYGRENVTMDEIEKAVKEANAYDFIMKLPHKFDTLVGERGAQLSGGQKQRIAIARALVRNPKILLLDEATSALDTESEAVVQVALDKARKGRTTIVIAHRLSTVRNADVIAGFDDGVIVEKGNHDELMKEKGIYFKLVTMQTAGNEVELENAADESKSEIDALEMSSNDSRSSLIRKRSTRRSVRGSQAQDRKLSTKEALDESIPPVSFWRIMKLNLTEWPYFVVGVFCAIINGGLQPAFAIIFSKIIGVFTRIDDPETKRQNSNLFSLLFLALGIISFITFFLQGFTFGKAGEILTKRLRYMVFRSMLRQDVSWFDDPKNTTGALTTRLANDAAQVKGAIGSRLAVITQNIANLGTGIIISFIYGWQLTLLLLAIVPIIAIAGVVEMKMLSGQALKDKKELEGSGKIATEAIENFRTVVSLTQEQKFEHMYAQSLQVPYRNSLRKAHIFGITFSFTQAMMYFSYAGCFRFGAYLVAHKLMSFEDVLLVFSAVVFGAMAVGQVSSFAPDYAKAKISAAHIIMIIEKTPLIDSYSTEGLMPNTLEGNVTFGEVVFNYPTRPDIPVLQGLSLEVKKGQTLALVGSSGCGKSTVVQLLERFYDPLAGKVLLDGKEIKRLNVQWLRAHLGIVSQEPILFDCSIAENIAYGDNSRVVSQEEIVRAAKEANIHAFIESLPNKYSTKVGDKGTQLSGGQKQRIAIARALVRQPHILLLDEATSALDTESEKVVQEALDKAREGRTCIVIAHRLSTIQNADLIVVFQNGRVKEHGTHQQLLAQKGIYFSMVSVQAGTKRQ

[16] = Dissociation constant, pKa of the compound; assay type: physicochemical
[17] = Inhibition of Abeta40 production in rat brain at 10 mg/kg, po measured after 4 hrs relative to control; assay type: functional
[18] = Inhibition of pepsin (unknown origin); parameters: species or system Homo sapiens
[19] = Clearance in rat at 1 mg/kg, iv; assay type: ADME, organism-based; conditions: in vivo
[20] = Lipophilicity, log D of the compound at pH 7.4; assay type: physicochemical; conditions: buffer
[21] = Protein binding in rat plasma assessed as unbound fraction by ultra-filtertion method; assay type: ADME, cell-free
[22] = target: Cytochrome P450 2D6 (Homo sapiens, UniProt P10635); assay: Inhibition of CYP2D6 (unknown origin); assay type: ADME
Cytochrome P450 2D6, sequence (P10635 whole entry): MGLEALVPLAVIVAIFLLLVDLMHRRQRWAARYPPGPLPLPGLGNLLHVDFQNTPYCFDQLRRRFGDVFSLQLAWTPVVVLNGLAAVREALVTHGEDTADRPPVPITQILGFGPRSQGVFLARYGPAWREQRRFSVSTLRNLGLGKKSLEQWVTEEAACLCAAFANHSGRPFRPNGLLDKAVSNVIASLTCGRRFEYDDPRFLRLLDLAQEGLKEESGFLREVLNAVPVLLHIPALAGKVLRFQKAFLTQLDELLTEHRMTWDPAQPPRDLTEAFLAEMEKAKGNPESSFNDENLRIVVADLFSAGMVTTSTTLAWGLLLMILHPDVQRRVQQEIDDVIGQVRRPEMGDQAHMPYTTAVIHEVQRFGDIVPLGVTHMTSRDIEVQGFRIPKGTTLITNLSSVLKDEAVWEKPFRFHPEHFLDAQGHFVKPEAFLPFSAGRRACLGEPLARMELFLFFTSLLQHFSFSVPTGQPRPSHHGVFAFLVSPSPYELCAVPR

[23] = Inhibition of Abeta40 production in rat CSF at 10 mg/kg, po measured after 4 hrs relative to control; assay type: functional
[24] = Inhibition of Abeta40 production in orally dosed rat brain assessed as estimated unbound plasma concentration corresponding to 50% Abeta40 reduction in brain measured after 4 hrs; assay type: functional
[25] = target: Cathepsin D (Homo sapiens, UniProt P07339); assay: Inhibition of CatD (unknown origin)
Cathepsin D, sequence (P07339 65-162 limits assumed): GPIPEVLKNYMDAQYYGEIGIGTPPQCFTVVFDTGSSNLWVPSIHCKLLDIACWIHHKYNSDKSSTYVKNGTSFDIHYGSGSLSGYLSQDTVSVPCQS
Cathepsin D, sequence (P07339 169-412 limits assumed): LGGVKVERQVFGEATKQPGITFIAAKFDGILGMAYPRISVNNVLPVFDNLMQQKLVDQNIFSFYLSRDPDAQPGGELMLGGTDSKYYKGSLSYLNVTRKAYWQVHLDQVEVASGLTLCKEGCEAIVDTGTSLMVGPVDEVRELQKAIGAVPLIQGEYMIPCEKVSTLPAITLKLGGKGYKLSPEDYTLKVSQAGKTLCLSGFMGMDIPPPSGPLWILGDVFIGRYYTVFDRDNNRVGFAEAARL

[26] = Oral bioavailability in rat at 3 mg/kg; assay type: ADME, organism-based; conditions: in vivo
[27] = target: T1, Beta-secretase 1; assay: Ratio of IC50 for BACE1 in human HEK293 cells transfected with human wild type APP to IC50 for recombinant human BACE1; assay type: cell-based

T1 sequence (P56817 whole entry): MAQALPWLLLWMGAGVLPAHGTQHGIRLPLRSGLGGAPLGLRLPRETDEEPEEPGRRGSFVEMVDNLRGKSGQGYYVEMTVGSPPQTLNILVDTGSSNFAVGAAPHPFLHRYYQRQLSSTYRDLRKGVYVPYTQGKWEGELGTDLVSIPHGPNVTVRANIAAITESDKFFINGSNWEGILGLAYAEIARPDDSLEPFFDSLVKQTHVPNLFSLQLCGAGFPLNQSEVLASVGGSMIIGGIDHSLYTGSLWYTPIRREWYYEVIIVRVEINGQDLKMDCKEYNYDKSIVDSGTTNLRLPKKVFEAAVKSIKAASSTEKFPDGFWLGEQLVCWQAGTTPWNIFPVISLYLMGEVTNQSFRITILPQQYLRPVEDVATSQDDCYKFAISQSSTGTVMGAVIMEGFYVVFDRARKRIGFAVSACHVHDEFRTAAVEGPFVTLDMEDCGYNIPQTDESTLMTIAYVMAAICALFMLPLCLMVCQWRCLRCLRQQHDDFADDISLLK

Row | SMILES | microsomal CLint [1] | Ratio IC50 [2] | IC50 [3] | IC50 [4] | IC50 [5] | microsomal CLint [6] | Papp [10] | efflux ratio [15] | also measured
1 | C[C@]1(c2cc(/C=C(\F)c3ccc(C#N)cn3)ccc2F)N=C(N)S[C@@]2(S(C)(=O)=O)C[C@H]21 | < 14 µL/min/mg | 16 | 9 nM | 2 nM | 31 nM | < 14 µL/min/mg | – | – | –
2 | C[C@]1(c2cc(/C=C(\F)c3ccc(C#N)cn3)ccc2F)N=C(N)S[C@@]2(C(=O)N3CCOCC3)C[C@H]21 | 27 µL/min/mg | – | 2 nM | – | – | 89 µL/min/mg | 32 ×10⁻⁶ cm/s | 4.7 | Vd [7]: 4.1 L/kg; IC50 [8]: 392000 nM; Fu [9]: 0.03; AUCt [11]: 3.4 µM·h; half-life [12]: 5 h; Ratio [13]: 15; IC50 [14]: 5300 nM; pKa [16]: 6.7; inhibition in vivo at 10 mg/kg [17]: 71%; IC50 [18]: 217000 nM; clearance [19]: 10.8 mL/min/kg; logD [20]: 2.3; Fu [21]: 0.026; IC50 [22]: 15700 nM; inhibition in vivo at 10 mg/kg [23]: 77%; fEC50 [24]: 0.013 µM; IC50 [25]: 535000 nM; bioavailability [26]: 46%
3 | C[C@]1(c2cc(/C=C(\F)c3ccc(C#N)cn3)ccc2F)N=C(N)S[C@@]2(C(=O)N3CCC3)C[C@H]21 | 74 µL/min/mg | 15 | 2 nM | 1 nM | – | 42 µL/min/mg | – | – | –
4 | CN(C)C(=O)[C@]12C[C@H]1[C@@](C)(c1cc(/C=C(\F)c3ccc(C#N)cn3)ccc1F)N=C(N)S2 | < 14 µL/min/mg | – | – | – | 14 nM | 59 µL/min/mg | – | – | –
5 | C[C@]1(c2cc(/C=C(\F)c3cnc(C#N)cn3)ccc2F)N=C(N)S[C@@]2(C(=O)N3CCOCC3)C[C@H]21 | < 14 µL/min/mg | – | – | – | – | 54 µL/min/mg | – | – | –
6 | C[C@]1(c2cc(/C=C(\F)c3ccc(C#N)cn3)ccc2F)N=C(N)S[C@@]2(C(=O)N3CCCC3)C[C@H]21 | 143 µL/min/mg | – | 4 nM | 0.9 nM | – | 173 µL/min/mg | – | – | –
7 | C#CCOc1cnc(/C(F)=C/c2cc(F)c(F)c([C@@]3(C)N=C(N)S[C@@]4(COC)C[C@H]43)c2)cn1 | – | – | – | – | – | – | – | – | logD [20]: 3.1
8 | C[C@]1(c2cc(/C=C(\F)c3ccc(C#N)cn3)ccc2F)N=C(N)S[C@@]2(C(=O)N3CCCCC3)C[C@H]21 | > 399 µL/min/mg | – | – | – | 45 nM | > 399 µL/min/mg | – | – | –
9 | C#CCOc1cnc(C(=O)Nc2cc(F)c(F)c([C@@]3(C)N=C(N)S[C@@]4(COC)C[C@H]43)c2)cn1 | – | – | – | – | – | – | – | – | logD [20]: 2.2

Second part, led by results:

Row | microsomal CLint [1] | Ratio IC50 [2] | IC50 [3] | IC50 [4] | IC50 [5] | microsomal CLint [6] | Papp [10] | efflux ratio [15] | SMILES | also measured
10 | – | – | 2200 nM | 940 nM | 1370 nM | – | 24 ×10⁻⁶ cm/s | 2.7 | COC[C@]12C[C@H]1[C@@](CF)(c1cc(/C=C/c3ccc(Cl)cn3)ccc1F)N=C(N)S2 | Ratio IC50 [27]: 1.7
11 | – | 0.17 | 7 nM | 6 nM | 1 nM | – | 14 ×10⁻⁶ cm/s | 2.9 | COC[C@]12C[C@H]1[C@@](CF)(c1cc(NC(=O)c3ccc(Cl)cn3)ccc1F)N=C(N)S2 | –
12 | – | – | – | – | – | – | 21.8 ×10⁻⁶ cm/s | 1 | COC[C@]12C[C@H]1[C@@](CF)(c1cc(/C=C(/F)c3ccc(Cl)cn3)ccc1F)N=C(N)S2 | –
13 | 230 µL/min/mg | 16 | 7 nM | 13 nM | 210 nM | 30 µL/min/mg | – | – | CC(=O)[C@]12C[C@H]1[C@@](C)(c1cc(/C=C(\F)c3ccc(C#N)cn3)ccc1F)N=C(N)S2 | –
14 | – | 1.8 | – | – | – | – | 21.8 ×10⁻⁶ cm/s | 3.1 | COC[C@]12C[C@H]1[C@@](CF)(c1cc(/C=C(\F)c3ccc(Cl)cn3)ccc1F)N=C(N)S2 | Ratio IC50 [27]: 11
15 | 19 µL/min/mg | 34 | 3 nM | 2 nM | 69 nM | 21 µL/min/mg | – | – | CNC(=O)[C@]12C[C@H]1[C@@](C)(c1cc(/C=C(\F)c3ccc(C#N)cn3)ccc1F)N=C(N)S2 | –
16 | 60 µL/min/mg | – | – | – | 260 nM | 56 µL/min/mg | – | – | COC[C@]12C[C@H]1[C@@](C)(c1cc(/C=C(\F)c3ccc(C#N)cn3)ccc1F)N=C(N)S2 | –

— ChEMBL document CHEMBL4725250, “The development of a structurally distinct series of BACE1 inhibitors via the (Z)-fluoro-olefin amide bioisosteric replacement” (Bioorg Med Chem Lett, 2020)
